Assay results as given in patent US20090291942A1, “IMIDAZO PYRIDINE DERIVATIVES” (priority 2008, published 2009).
Structures can show the parent of a compound that is named as a salt.

These molecules were tested against T1, human GPR4 (Homo sapiens, UniProt P46093) (assay: Cell-based assay for human GPR4 activity (pH-induced cAMP formation, HTRF)). Details: HeLa cells stably expressing human GPR4, pH-induced cAMP formation.
T1 construct: expressed in transfected cells
T1 sequence (P46093 whole entry): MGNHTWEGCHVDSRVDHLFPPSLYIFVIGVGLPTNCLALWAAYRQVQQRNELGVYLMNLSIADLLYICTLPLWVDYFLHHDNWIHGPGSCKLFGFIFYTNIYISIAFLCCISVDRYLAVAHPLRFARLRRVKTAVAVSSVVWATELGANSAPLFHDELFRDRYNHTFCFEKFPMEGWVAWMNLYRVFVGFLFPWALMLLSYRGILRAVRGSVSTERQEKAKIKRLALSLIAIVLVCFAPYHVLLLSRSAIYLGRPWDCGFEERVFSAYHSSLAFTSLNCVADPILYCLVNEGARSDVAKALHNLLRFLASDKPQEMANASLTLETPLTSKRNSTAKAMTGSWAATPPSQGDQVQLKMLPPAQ
Experimental: a) Cell-Based Assay for Human GPR4 Activity
HeLa cells stably expressing human GPR4 were established by transfecting the cells with a construct containing the human GPR4 coding sequence. The cells were grown in DMEM/HAM's F12 medium supplemented with 10% fetal calf serum (FCS), 100 u/ml penicillin, 100 μg/ml streptomycin and 400 μg/ml G418 and 10 mM Hepes pH 8.0. pH-induced formation of cAMP was determined using the HTRF technology as provided by CisBio Inc. The cells were seeded in 384-well plates and cultured for 24 hours at 37° C., 5% CO2 before performing the assay. Medium was removed and 10 μl buffer A (HBS, 10 mM Hepes, pH 8, 2 mM IBMX) was added. For compound testing, buffer A with 2× concentrated compounds was used. Cells were incubated for 15 min at room temperature. 10 μl buffer B (HBS, 30 mM Hepes, specific pH) was added to reach the appropriate final pH for stimulation (see below) and incubation was continued for 15 min at room temperature. […] HBS: 130 mM NaCl, 0.9 mM NaH2PO4, 5.4 mM KCl, 0.8 mM MgSO4, CaCl2 1.8 mM, 25 mM glucose, 10-30 mM Hepes. Adjustment of HBS buffers: Bf A Bf B Final stimulation pH (1 volume buffer A+1 volume buffer B)
Compounds were diluted from fresh stock solutions at 10 mM in DMSO to 2 mM and then used for serial dilutions in DMSO.
Molecule CCc1nc2c(C)cc(C)nc2n1Cc1ccc(NC(=O)CCCCN2CCCC2)cc1 [Example 101, 5-Pyrrolidin-1-yl-pentanoic acid [4-(2-ethyl-5,7-dimethyl-imidazo[4,5-b]pyridin-3-ylmethyl)-phenyl]-amide] has an IC50 of 364 nM.
Molecule CCc1nc2c(C)cc(C)nc2n1Cc1ccc(/C=C/CCN2CCC(N3CCN(C)CC3)CC2)cc1 [Example 107, 2-Ethyl-5,7-dimethyl-3-{4-[(E)-4-[4-(4-methyl-piperazin-1-yl)-piperidin-1-yl]-but-1-enyl]-benzyl}-3H-imidazo[4,5-b]pyridine] has an IC50 of 191 nM.
COC(=O)C1CCN(C/C=C/c2ccc(Cn3c(C(F)(F)F)nc4c(C)cc(C)nc43)cc2)CC1 [Example 90, 1-{(E)-3-[4-(5,7-Dimethyl-2-trifluoromethyl-imidazo[4,5-b]pyridin-3-ylmethyl)-phenyl]-allyl}-piperidine-4-carboxylic acid methyl ester hydrochloride] gave an IC50 of 568 nM.
CCCc1nc2c(C)cc(C)nc2n1Cc1ccc(/C=C/CN2CCC(N3CCCCC3)CC2)cc1 [Example 82, 1′-{(E)-3-[4-(5,7-Dimethyl-2-propyl-imidazo[4,5-b]pyridin-3-ylmethyl)-phenyl]-allyl}-[1,4′]bipiperidine dihydrochloride] was tested, and the IC50 was 455 nM.
CCc1nc2c(C)cc(C)nc2n1Cc1ccc(CCCCN2CCC(N3CCCCC3)CC2)cc1 [Example 112, 1′-{4-[4-(2-Ethyl-5,7-dimethyl-imidazo[4,5-b]pyridin-3-ylmethyl)-phenyl]-butyl}-[1,4′]bipiperidine] gave an IC50 of 59 nM.
In the case of CCc1nc2c(C)cc(C)nc2n1Cc1ccc(/C=C/C(=O)N2CCC(N3CCOCC3)CC2)cc1 [Example 98, (E)-3-[4-(2-Ethyl-5,7-dimethyl-imidazo[4,5-b]pyridin-3-ylmethyl)-phenyl]-1-(4-morpholin-4-yl-piperidin-1-yl)-propenone], the IC50 is reported as 328 nM.
For Cc1cc(C)c2nc(C3CC3)n(Cc3ccc(/C=C/CN4CCN(C(C)C)CC4)cc3)c2n1 [Example 84, 2-Cyclopropyl-3-{4-[(E)-3-(4-isopropyl-piperazin-1-yl)-propenyl]-benzyl}-5,7-dimethyl-3H-imidazo[4,5-b]pyridine dihydrochloride], the IC50 was 181 nM.
Molecule CCc1nc2c(C)cc(C)nc2n1Cc1ccc(C#CCN2CCCC2)cc1 [Example 3, 2-Ethyl-5,7-dimethyl-3-[4-(3-pyrrolidin-1-yl-prop-1-ynyl)-benzyl]-3H-imidazo[4,5-b]pyridine] has an IC50 of 584 nM.
CCc1nc2c(C)cc(C)nc2n1Cc1ccc(/C=C/CN2[C@@H]3CC[C@H]2CC(n2cnc4ccccc42)C3)cc1 (stereo partly drawn) [Example 41, 3-{4-[(E)-3-((1R,5S)-3-Benzoimidazol-1-yl-8-aza-bicyclo[3.2.1]oct-8-yl)-propenyl]-benzyl}-2-ethyl-5,7-dimethyl-3H-imidazo[4,5-b]pyridine hydrochloride] was tested, and the IC50 was 799 nM.
CCc1nc2c(C)cc(C)nc2n1Cc1ccc(C(=O)NCCCCN2CCCCCC2)cc1 [Example 100, N-(4-Azepan-1-yl-butyl)-4-(2-ethyl-5,7-dimethyl-imidazo[4,5-b]pyridin-3-ylmethyl)-benzamide] was tested, and the IC50 was 495 nM.
For CCCCc1nc2c(C)cc(C)nc2n1Cc1ccc(/C=C/CN2CCC(N3CCCCC3)CC2)cc1 [Example 86, 1′-{(E)-3-[4-(2-Butyl-5,7-dimethyl-imidazo[4,5-b]pyridin-3-ylmethyl)-phenyl]-allyl}-[1,4′]bipiperidine dihydrochloride], the IC50 was 481 nM.
Molecule CCc1nc2c(C)cc(C)nc2n1Cc1ccc(/C=C/C(=O)N2CCC(N(CC)CC)CC2)cc1 [Example 96, (E)-1-(4-Diethylamino-piperidin-1-yl)-3-[4-(2-ethyl-5,7-dimethyl-imidazo[4,5-b]pyridin-3-ylmethyl)-phenyl]-propenone] has an IC50 of 994 nM.
For CCc1nc2c(C)cc(C)nc2n1Cc1ccc(CCCN2CCN(C(CC)CC)CC2)cc1 [Example 15, 2-Ethyl-3-(4-{3-[4-(1-ethyl-propyl)-piperazin-1-yl]-propyl}-benzyl)-5,7-dimethyl-3H-imidazo[4,5-b]pyridine], the IC50 was 50 nM.
CCc1nc2c(C)cc(C)nc2n1Cc1ccc(/C=C/CN2CCC(N3CCN(C)CC3)CC2)cc1 [Example 35, 2-Ethyl-5,7-dimethyl-3-(4-{(E)-3-[4-(4-methyl-piperazin-1-yl)-piperidin-1-yl]-propenyl}-benzyl)-3H-imidazo[4,5-b]pyridine] gave an IC50 of 342 nM.
Molecule CCc1nc2c(C)cc(C)nc2n1Cc1ccc(NC(=O)CCCCN2CCCCC2)cc1 [Example 102, 5-Piperidin-1-yl-pentanoic acid [4-(2-ethyl-5,7-dimethyl-imidazo[4,5-b]pyridin-3-ylmethyl)-phenyl]-amide] has an IC50 of 241 nM.
CCc1nc2c(C)cc(C)nc2n1Cc1ccc(CCCN2CCN(C)CC2)cc1 [Example 6, 2-Ethyl-5,7-dimethyl-3-{4-[3-(4-methyl-piperazin-1-yl)-propyl]-benzyl}-3H-imidazo[4,5-b]pyridine dihydrochloride] was tested, and the IC50 was 395 nM.
For CCc1nc2c(C)cc(C)nc2n1Cc1ccc(/C=C/CN2CCN(C(C)CC)CC2)cc1 (stereo not drawn) [Example 49, 3-{4-[(E)-3-(4-sec-Butyl-piperazin-1-yl)-propenyl]-benzyl}-2-ethyl-5,7-dimethyl-3H-imidazo[4,5-b]pyridine], the IC50 was 100 nM.
With CCc1nc2c(C)cc(C)nc2n1Cc1ccc(C#CCN2CCN(C(C)C)CC2)cc1 [Example 1, 2-Ethyl-3-{4-[3-(4-isopropyl-piperazin-1-yl)-prop-1-ynyl]-benzyl}-5,7-dimethyl-3H-imidazo[4,5-b]pyridine] the IC50 was 189 nM.
CCc1nc2c(C)cc(C)nc2n1Cc1ccc(/C=C(\F)CN2CCN(C(C)(C)C)CC2)cc1 [Example 95, 3-{4-[(Z)-3-(4-tert-Butyl-piperazin-1-yl)-2-fluoro-propenyl]-benzyl}-2-ethyl-5,7-dimethyl-3H-imidazo[4,5-b]pyridine dihydrochloride] gave an IC50 of 31 nM.
Work on CCCCN1CCN(CCCc2ccc(Cn3c(CC)nc4c(C)cc(C)nc43)cc2)CC1 [Example 10, 3-{4-[3-(4-Butyl-piperazin-1-yl)-propyl]-benzyl}-2-ethyl-5,7-dimethyl-3H-imidazo[4,5-b]pyridine] yielded an IC50 of 123 nM.
CCc1nc2c(C)cc(C)nc2n1Cc1ccc(/C=C/CN2CCOC(CN)C2)cc1 (stereo not drawn) [Example 78, C-(4-{(E)-3-[4-(2-Ethyl-5,7-dimethyl-imidazo[4,5-b]pyridin-3-ylmethyl)-phenyl]-allyl}-morpholin-2-yl)-methylamine dihydrochloride] showed an IC50 of 114 nM.
CCc1nc2c(C)cc(C)nc2n1Cc1ccc(CCCN2CCN(C3CCCCC3)CC2)cc1 [Example 19, 3-{4-[3-(4-Cyclohexyl-piperazin-1-yl)-propyl]-benzyl}-2-ethyl-5,7-dimethyl-3H-imidazo[4,5-b]pyridine dihydrochloride] gave an IC50 of 182 nM.
Work on CCc1nc2c(C)cc(C)nc2n1Cc1ccc(CCCN2CCN(C(C)C)C(C)C2)cc1 (stereo not drawn) [Example 23, 2-Ethyl-3-{4-[3-(4-isopropyl-3-methyl-piperazin-1-yl)-propyl]-benzyl}-5,7-dimethyl-3H-imidazo[4,5-b]pyridine] yielded an IC50 of 253 nM.
In the case of CCc1nc2c(C)cc(C)nc2n1Cc1ccc(/C=C/CN2CCN(CCC(C)C)CC2)cc1 [Example 52, 2-Ethyl-5,7-dimethyl-3-(4-{(E)-3-[4-(3-methyl-butyl)-piperazin-1-yl]-propenyl}-benzyl)-3H-imidazo[4,5-b]pyridine dihydrochloride], the IC50 is reported as 140 nM.
CCc1nc2c(C)cc(C)nc2n1Cc1ccc(/C=C/CN2CCN(CCCOC)CC2)cc1 [Example 64, 2-Ethyl-3-(4-{(E)-3-[4-(3-methoxy-propyl)-piperazin-1-yl]-propenyl}-benzyl)-5,7-dimethyl-3H-imidazo[4,5-b]pyridine dihydrochloride] showed an IC50 of 367 nM.
CCc1nc2c(C)cc(C)nc2n1Cc1ccc(CCCN2CCN(C3CCCC3)CC2)cc1 [Example 18, 3-{4-[3-(4-Cyclopentyl-piperazin-1-yl)-propyl]-benzyl}-2-ethyl-5,7-dimethyl-3H-imidazo[4,5-b]pyridine] showed an IC50 of 186 nM.
With CCc1nc2c(C)cc(C)nc2n1Cc1ccc(/C=C/CN2C[C@H]3C[C@@H]2CN3CC(C)C)cc1 [Example 75, 2-Ethyl-3-{4-[(E)-3-((1R,4R)-5-isobutyl-2,5-diaza-bicyclo[2.2.1]hept-2-yl)-propenyl]-benzyl}-5,7-dimethyl-3H-imidazo[4,5-b]pyridine dihydrochloride] the IC50 was 146 nM.
CCc1nc2c(C)cc(C)nc2n1Cc1ccc(C#CCNCCN2CCCC2)cc1 [Example 4, {3-[4-(2-Ethyl-5,7-dimethyl-imidazo[4,5-b]pyridin-3-ylmethyl)-phenyl]-prop-2-ynyl}-(2-pyrrolidin-1-yl-ethyl)-amine] gave an IC50 of 704 nM.
Molecule Cc1cc(C)c2nc(C(C)C)n(Cc3ccc(/C=C/CN4CCC(N5CCCCC5)CC4)cc3)c2n1 [Example 83, 1′-{(E)-3-[4-(2-Isopropyl-5,7-dimethyl-imidazo[4,5-b]pyridin-3-ylmethyl)-phenyl]-allyl}-[1,4′]bipiperidinyl dihydrochloride] has an IC50 of 294 nM.
In the case of CCc1nc2c(C)cc(C)nc2n1Cc1ccc(/C=C/CN2CCN(CCCN(C)C)CC2)cc1 [Example 59, [3-(4-{(E)-3-[4-(2-Ethyl-5,7-dimethyl-imidazo[4,5-b]pyridin-3-ylmethyl)-phenyl]-allyl}-piperazin-1-yl)-propyl]-dimethyl-amine dihydrochloride], the IC50 is reported as 231 nM.
